Measurements: ChEMBL document CHEMBL1201862, “PubChem BioAssay data set” (2004)
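Step 1: Grow cells in 96-well plates. Step 2: Expose to compound for 48 hours at 5 concentrations. Step 3: Interpolate endpoints linearly; if unreached, use highest concentration. Abbreviation: GI50, concentration required for 50% inhibition of growth.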 Calls of active or inactive are those of the source. Rule as the data show it: active = GI50 up to about 1.1 µM and inactive = higher.

Legend:
Experiment in all cases: growth of human tumour cells (NCI), 48 h
[1] = test system: KM12
[2] = test system: CCRF-CEM
[3] = test system: HOP-92
[4] = test system: HCC 2998
[5] = test system: UACC-62
[6] = test system: SK-MEL-28
[7] = test system: SW-620
[8] = test system: HOP-62
[9] = test system: RXF 393
[10] = test system: A498
[11] = test system: SK-MEL-5
[12] = test system: HCT-116
[13] = test system: NCI/ADR-RES
[14] = test system: K562
[15] = test system: OVCAR-8
[16] = test system: SN12C
[17] = test system: RPMI-8226
[18] = test system: OVCAR-4
[19] = test system: SF-268
[20] = test system: MOLT-4
[21] = test system: SNB-19
[22] = test system: PC-3
[23] = test system: Hs-578T
[24] = test system: M14
[25] = test system: UACC-257
[26] = test system: A549
[27] = test system: OVCAR-3
[28] = test system: MDA-N
[29] = test system: IGROV-1
[30] = test system: SK-OV-3
[31] = test system: BT-549
[32] = test system: U-251
[33] = test system: HL-60
[34] = test system: T47D
[35] = test system: SK-MEL-2
[36] = test system: HCT-15
[37] = test system: NCI-H226
[38] = test system: MDA-MB-435
[39] = test system: SF-539
[40] = test system: EKVX
[41] = test system: LOX IMVI
[42] = test system: MDA-MB-231
[43] = test system: OVCAR-5
[44] = test system: TK-10
[45] = test system: SF-295
[46] = test system: ACHN
[47] = test system: SR
[48] = test system: COLO 205
[49] = test system: DU-145
[50] = test system: NCI-H460
[51] = test system: CAKI-1
[52] = test system: NCI-H522
[53] = test system: SNB-75
[54] = test system: UO-31
[55] = test system: HT-29
[56] = test system: 786-0
[57] = test system: NCI-H23
[58] = test system: MCF7
[59] = test system: Malme-3M

Cc1ccc(/C=C/C(=N/NC(=O)N/N=C(/C=C/c2ccc(C)cc2)C(C)(C)CN2CCCCC2)C(C)(C)CN2CCCCC2)cc1
GI50 [1]: 1.64 µM (inactive)
GI50 [2]: 1.3 µM (inactive)
GI50 [3]: 1.51 µM (inactive)
GI50 [4]: 1.77 µM (inactive)
GI50 [5]: 2.3 µM (inactive)
GI50 [6]: 1.73 µM (inactive)
GI50 [7]: 1.79 µM (inactive)
GI50 [8]: 1.65 µM (inactive)
GI50 [9]: 1.28 µM (inactive)
GI50 [10]: 1.67 µM (inactive)
GI50 [11]: 1.67 µM (inactive)
GI50 [12]: 1.34 µM (inactive)
GI50 [13]: 1.64 µM (inactive)
GI50 [14]: 122 nM (active)
GI50 [15]: 1.54 µM (inactive)
GI50 [16]: 1.61 µM (inactive)
GI50 [17]: 258 nM (active)
GI50 [18]: 2.07 µM (inactive)
GI50 [19]: 1.81 µM (inactive)
GI50 [20]: 125 nM (active)
GI50 [21]: 2.11 µM (inactive)
GI50 [22]: 1.69 µM (inactive)
GI50 [23]: 1.52 µM (inactive)
GI50 [24]: 614 nM (active)
GI50 [25]: 1.72 µM (inactive)
GI50 [26]: 1.52 µM (inactive)
GI50 [27]: 1.48 µM (inactive)
GI50 [28]: 1.52 µM (inactive)
GI50 [29]: 1.98 µM (inactive)
GI50 [30]: 1.77 µM (inactive)
GI50 [31]: 2.1 µM (inactive)
GI50 [32]: 1.48 µM (inactive)
GI50 [33]: 1.63 µM (inactive)
GI50 [34]: 2.19 µM (inactive)
GI50 [35]: 1.94 µM (inactive)
GI50 [36]: 1570 nM
GI50 [37]: 1.82 µM (inactive)
GI50 [38]: 1.45 µM (inactive)
GI50 [39]: 1.77 µM (inactive)
GI50 [40]: 2.67 µM (inactive)
GI50 [41]: 1.16 µM (inactive)
GI50 [42]: 1.79 µM (inactive)
GI50 [43]: 2.16 µM (inactive)
GI50 [44]: 1.74 µM (inactive)
GI50 [45]: 1.71 µM (inactive)
GI50 [46]: 2 µM (inactive)
GI50 [47]: 78.7 nM (active)
GI50 [48]: 1.53 µM (inactive)
GI50 [49]: 3.48 µM (inactive)
GI50 [50]: 1.64 µM (inactive)
GI50 [51]: 2.31 µM (inactive)
GI50 [52]: 1.63 µM (inactive)
GI50 [53]: 1.46 µM (inactive)
GI50 [54]: 813 nM (active)
GI50 [55]: 757 nM (active)
GI50 [56]: 1.39 µM (inactive)
GI50 [57]: 2.19 µM (inactive)
GI50 [58]: 1.47 µM (inactive)
GI50 [59]: 1.67 µM (inactive)
